This passage reports melting point results from a melting point compilation (Tetko et al.; mined from patent text by program, amines drawn as free bases though some values may be those of a salt).

As to `O=C(O)CCCCCCCCCCOc1cc(OCCCCCCCCCCC(=O)O)cc(C(=O)N(CC(=O)O)CC(=O)O)c1`, the melting point is 134 to 140 °C.
The result for `CCCc1ccc(OCCC(C)C)c2c(=O)cc(C(=O)O)oc12` reads 64.5 to 65 °C; that for `COC1CCCC(C2NC(=O)C2C(C)O[Si](C)(C)C(C)(C)C)C1O` (centres undefined), 146 to 148 °C; that for `CC(=O)c1ccc(OCC(O)CCCl)cc1` (centres undefined), 75 to 77 °C.
The result for `COc1ccc(CC(=O)c2ccc(OCc3ccccc3)cc2)cc1` reads 147 to 148 °C; that for `COC(=O)c1cc2c3c(cc(OCc4ccccc4)c2[nH]1)N(C(=O)OC(C)(C)C)C[C@H]3COC(C)=O`, 128 to 130 °C.
With `CN(C)CCCCCCc1nn(CC(N)=O)c(-c2ccccc2)c1-c1ccccc1` the figure was 60 to 63 °C; with `O=C(Nc1ccc2ccc(Cl)nc2n1)Oc1ccccc1`, 208 °C; with `COC(=O)C(=Cc1ccc2c(c1)CCO2)N=[N+]=[N-]`, 77 to 80 °C.
Consider `CS(=O)(=O)c1ccc(-n2nc(CO)cc2-c2ccc(-c3ccco3)cc2)cc1`, for which the melting point is 176 °C.
With `Cc1ccc(-c2c(O)nn(CCO[Si](C)(C)C(C)(C)C)c2N)cc1` the figure was 194 to 195 °C; with `COC(=O)C=C1CCOc2ccc(Cl)cc21`, 113 to 115 °C.
In the case of `CCOC(=O)CC(=O)NC(Cc1ccccc1)C(C)=O` (centres undefined), the melting point lay within 68 to 69 °C.
In turn, `Cc1oc(-c2ccccc2)nc1C(=O)CBr` returned a melting point of 88 to 89 °C.
With `CC(=Cc1ccccc1)c1ccc2c(c1)C(C)(C)CC(O)C2(C)C` (centres undefined) the figure was 102 to 103 °C.
Take `O=C(CC1C2=C(CCCC2)C(=O)N1c1ccc(Cl)cc1)N1CCCCC1` (centres undefined): the melting point lay within 120 to 122 °C.
As for `Clc1ccccc1CSc1nnc(-c2ccc3c(c2)CCO3)o1`, the melting point fell in the range of 140 to 141 °C.
The result for `CCOC(=O)c1cccc2c(=O)cc(-c3cccc(OCc4ccc5ccccc5n4)c3)oc12` reads greater than 300 °C.
With `Cc1ccccc1OCC(O)CNCCCOc1ccccc1` (centres undefined) the figure was 73 to 74 °C; with `CCOC(=O)N1CCC(=C2c3ccccc3CCn3ncnc32)CC1`, 106 °C.
With `Fc1cccc(F)c1Cn1c(-c2c(F)cccc2F)nc2ccccc21` the figure was 145 °C; with `CC(C)NCC(O)COc1ccc2c(=O)cc(-c3cc(OCc4ccccc4)cc(OCc4ccccc4)c3)oc2c1` (centres undefined), 173 to 174 °C.
The compound `CCc1cnc(C2=NC(C)(C(C)C)C(=O)N2)c(C(=O)NCCCCCC(=O)OC)c1` (centres undefined) displayed a melting point of 101 to 103 °C.
`O=C(Nc1cccc(F)c1F)c1ccc(-n2nc(C(F)(F)F)cc2C2CC2)nc1` showed a melting point of 155 to 160 °C.
The result for `CCC1(O)CC(=O)OCc2c1cc1n(c2=O)Cc2c-1nc1ccccc1c2CCC(C)C` (centres undefined) reads 263 °C.
With `Cc1c(C)c2c(c(C)c1NC(=O)NCCN(C)C)C(c1ccc(C(C)C)cc1)CO2` (centres undefined) the figure was 133 to 134 °C.
With `O=C(Nc1cccc(Br)n1)Nc1cccc2c1C1CC3(CCN1C2=O)SCCS3` (centres undefined), the melting point came out at 170 °C.
The result for `CCCCCCN(C)C(=O)c1cccc(CN2C(=O)C3(COc4cc5c(cc43)CCO5)c3ccccc32)c1` (centres undefined) reads 73 to 74 °C.
The result for `O=C1OCCC1=Cc1ccccc1OCC1CO1` (centres undefined) reads 68 to 70 °C; that for `O=C(Nc1ccc(CN2CCCCC2)cc1)C1=Cc2cc(C3CCCCC3)ccc2CC1`, 180 to 181 °C; that for `O=C(NN=Cc1ccc2cc(OC(=O)c3ccc([N+](=O)[O-])o3)ccc2c1)OCc1ccccc1`, 109 to 112 °C.
With `O=C(O)CN[C@H]1CCN(c2ccc3c(NC(=O)CC4CCCCC4)c(Cl)ccc3n2)C1` the figure was 257 to 259 °C; with `Cc1cc(Sc2ccc3nc(CCl)n(C)c3n2)cc(C)c1[N+](=O)[O-]`, 133 to 135 °C.
Take `CC(C(N)=O)c1ccc(-n2cc(Cl)cn2)c(Cl)c1` (centres undefined): the melting point was in the range of 131 to 132 °C.

As a reminder, the melting point is the temperature of the solid-liquid transition.
